The values that follow come from paper PMC3914206.

What all share (format): binding
Test [1] addresses T1, panel of 442 kinases (Homo sapiens, UniProt Q9UEW8).
T1 construct: purchased KINOMEscan
Conditions: kinase STK39; compound concentration 10 µM. The text has this: (§1) We assessed the selectivity of members of this scaffold using the KINOMEscan methodology across a near comprehensive panel of 442 kinases [[18,27]].

For test [2], the target named is T2, panel of 442 kinases (Homo sapiens, UniProt Q00536).
T2 construct: purchased KINOMEscan
The note with it: Compound Concentration 10 µM.
Source text: as §1

The target in test [3] is T3, panel of 442 kinases (Homo sapiens, UniProt P24723).
T3 construct: purchased KINOMEscan
The note with it: Compound Concentration 10 µM.
Source text: as §1

The target in test [4] is T4, panel of 442 kinases (Homo sapiens, UniProt P49336).
T4 construct: purchased KINOMEscan
Conditions: Compound Concentration 10 µM.
Source text: as §1

T2 sequence (Q00536 whole entry): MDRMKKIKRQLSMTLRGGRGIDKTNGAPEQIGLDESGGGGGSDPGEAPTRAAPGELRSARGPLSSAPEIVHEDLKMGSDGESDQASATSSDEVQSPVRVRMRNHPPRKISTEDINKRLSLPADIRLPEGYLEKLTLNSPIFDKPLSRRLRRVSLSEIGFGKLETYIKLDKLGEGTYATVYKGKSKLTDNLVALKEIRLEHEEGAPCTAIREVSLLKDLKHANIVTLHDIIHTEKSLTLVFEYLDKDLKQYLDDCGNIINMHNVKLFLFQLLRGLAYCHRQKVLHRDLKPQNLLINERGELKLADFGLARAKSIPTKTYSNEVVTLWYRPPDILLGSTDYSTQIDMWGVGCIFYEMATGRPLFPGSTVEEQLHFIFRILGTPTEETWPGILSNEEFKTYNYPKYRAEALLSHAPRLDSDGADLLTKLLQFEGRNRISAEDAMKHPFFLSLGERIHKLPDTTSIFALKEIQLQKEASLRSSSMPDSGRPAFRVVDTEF
T3 sequence (P24723 whole entry): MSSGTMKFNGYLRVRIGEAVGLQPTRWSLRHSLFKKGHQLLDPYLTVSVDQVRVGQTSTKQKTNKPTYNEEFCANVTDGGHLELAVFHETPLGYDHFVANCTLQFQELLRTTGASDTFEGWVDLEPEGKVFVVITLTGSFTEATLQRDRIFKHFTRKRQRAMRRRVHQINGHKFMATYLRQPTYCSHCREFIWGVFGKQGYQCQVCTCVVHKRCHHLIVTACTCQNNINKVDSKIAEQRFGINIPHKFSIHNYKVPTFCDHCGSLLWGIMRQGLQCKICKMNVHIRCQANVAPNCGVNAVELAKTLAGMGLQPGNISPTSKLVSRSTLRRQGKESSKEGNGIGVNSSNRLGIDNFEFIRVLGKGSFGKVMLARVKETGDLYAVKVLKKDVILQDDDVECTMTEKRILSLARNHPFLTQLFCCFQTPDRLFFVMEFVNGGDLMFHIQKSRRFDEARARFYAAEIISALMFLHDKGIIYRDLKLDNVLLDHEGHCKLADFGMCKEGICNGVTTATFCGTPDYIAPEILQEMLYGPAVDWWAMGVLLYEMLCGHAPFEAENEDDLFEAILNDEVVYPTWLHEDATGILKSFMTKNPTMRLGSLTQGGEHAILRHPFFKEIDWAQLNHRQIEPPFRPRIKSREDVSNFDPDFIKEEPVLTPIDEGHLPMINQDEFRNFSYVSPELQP
T4 sequence (P49336 whole entry): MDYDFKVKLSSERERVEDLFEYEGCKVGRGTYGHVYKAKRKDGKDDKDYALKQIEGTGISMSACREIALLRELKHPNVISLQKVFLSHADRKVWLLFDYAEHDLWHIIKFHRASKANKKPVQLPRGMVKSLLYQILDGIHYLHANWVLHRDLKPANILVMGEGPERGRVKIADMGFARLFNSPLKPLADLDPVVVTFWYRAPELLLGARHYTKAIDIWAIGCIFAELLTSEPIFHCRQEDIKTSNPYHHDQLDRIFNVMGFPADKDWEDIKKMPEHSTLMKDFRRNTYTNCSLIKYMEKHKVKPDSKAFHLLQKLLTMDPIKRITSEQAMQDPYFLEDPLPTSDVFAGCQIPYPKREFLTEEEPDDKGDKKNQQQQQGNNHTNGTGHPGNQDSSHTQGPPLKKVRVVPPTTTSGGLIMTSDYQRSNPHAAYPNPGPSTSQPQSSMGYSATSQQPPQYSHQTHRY

On to `COc1cc(C(=O)N2CCC(N3CCN(C)CC3)CC2)ccc1Nc1ncc2c(n1)N(C)c1ccccc1C(=O)N2C` [15 (LRRK2-IN-1)], for which the “% Ctrl, STK39” value in test [1] worked out at 39 % Ctrl. Also, the “KINOMEscan: PCTK1” value in test [2] stood at 96. For the same compound, the “KINOMEscan: PRKCH” value in test [3] was determined as 100. Further, in test [4], the “KINOMEscan: CDK8” value came out at 100.

Turning to `COc1cc(C(=O)N2CCC(N3CCN(C)CC3)CC2)ccc1Nc1ncc2c(n1)N1CCc3cccc(c31)C(=O)N2C` [Compound 24], in test [1], the “% Ctrl, STK39” value stood at 100 % Ctrl. Further, the “KINOMEscan: PRKCH” value in test [3] came out at 84. For the same compound, the “KINOMEscan: CDK8” value in test [4] was 91.

For `COc1cc(C(=O)N2CCC(N3CCN(C)CC3)CC2)ccc1Nc1ncc2c(n1)N(C1CCCC1)c1ccccc1C(=O)N2C` [Compound 25, 11-cyclopentyl-2-((2-methoxy-4-(4-(4-methylpiperazin-1-yl)piperidine-1-carbonyl)phenyl)amino)-5-methyl-5H-benzo[e]pyrimido[5,4-b][1,4]diazepin-6(11H)-one], the “% Ctrl, STK39” value in test [1] was found to be 100 % Ctrl. Moreover, in test [2], the “KINOMEscan: PCTK1” value came out at 100. Also, the “KINOMEscan: PRKCH” value in test [3] amounted to 100. For the same compound, the “KINOMEscan: CDK8” value in test [4] came out at 100.

Regarding `CCOc1cc(C(=O)N2CCC(N3CCN(C)CC3)CC2)ccc1Nc1ncc2c(n1)N(C1CCCC1)c1ccccc1C(=O)N2C` [Compound 26], the “% Ctrl, STK39” value in test [1] was 100 % Ctrl. Also, the “KINOMEscan: PCTK1” value in test [2] turned out to be 100. The “KINOMEscan: PRKCH” value in test [3] amounted to 100. The “KINOMEscan: CDK8” value in test [4] was determined as 95.
